In patent US20250049027A1, “PLANT PATHOGEN COMPOSITION” (Robjulz Pty. Ltd., priority 2021, published 2025):

How the values were obtained:
P. palmivora [1] = assay: In vivo testing using durian fruit, pre-treated then inoculated; design: species or system Phytophthora palmivora; conditions: concluded from the durian fruit data; ppm of BAC
Experimental: Healthy durian fruits were harvested carefully from a durian plantation, for artificial inoculation with Phytophthora isolate DB4. Untreated durian fruits with five replicates were used as the control. Fungicidal compositions were prepared, as for Example 5, then applied to the fruit surface. Durian fruits with sterile distilled water were included as a negative control. The pre-treated fruits were inoculated with a 12 mm plug of a 5-day old culture of P. palmivora grown on CMA plates by placing over the intact skin at the centre of each fruit. The resulting durian fruits were kept in moist plastic trays, covered with black polythene sheets to maintain moisture level, and incubated at 25±2° C. in the dark for seven days. Measurement of lesions were made at seven days after inoculation.

[2] = test system: Fusarium oxysporum f. sp. cubense TR4 (FocTR4); assay: In vivo preventative testing using banana plants, soil application before inoculation; conditions: concluded from the banana plant data; ppm of BAC
Experimental: The efficacy of a fungicidal composition of the present invention was tested against Fusarium oxysporum f. sp. cubense TR4 (FocTR4), the fungal pathogen responsible for Panama wilt of banana, for use as a preventative.
Banana seedlings (cv. Berangan, 2-month-old) were obtained from Malaysian Agricultural Research and Development Institute (MARDI). Soil was prepared in polybags and sterilized using a large capacity autoclave at the Institute of Plantation Sciences (IKP). Seedlings were allowed to acclimatize in a greenhouse for approximately two months, reaching a height of about 50 cm, before being inoculated with FocTR4. Plants were watered with a dripping system, and fertilized with NPK.
The seedlings were used in a randomized complete block design (RCBD) with seven treatments: healthy control, disease control, four concentrations (100 ppm, 300 ppm, 500 ppm and 700 ppm), and a commercial fungicide. For the four concentrations tested, compositions were either a test solution as described in Example 2, or a polymer control (as described in Example 1 with acrylamide polymer omitted). […]
Four replications were used for each treatment, with four plants per replicate. […] Seedlings were assessed after inoculation to measure disease incidence (DI) and disease severity (DSI). […] DSI was measured by estimating the proportion of plant surface area was infected. […]

[3] = test system: Fusarium oxysporum f. sp. cubense TR4 (FocTR4); assay: In vitro poison agar test, mycelial growth on potato dextrose agar; assay type: cell-based; conditions: concluded from the in vitro data; ppm of BAC
Experimental: In vitro tests were performed against Fusarium oxysporum f. sp. cubense TR4 (FocTR4), the fungal pathogen responsible for Panama wilt of banana, using a poison agar method as discussed below.
(§1) Potato dextrose agar (PDA, 39 g) medium (Difco™) was added to distilled or deionized water (1 L) in accordance with the manufacturer's instruction before autoclaving at 121° C. for 20 minutes and cooling to 50-55° C. in a water bath. To the resulting mixture was added the stock solution of Example 3, in accordance with the amounts in Table 5, or sterile distilled water (control sample). Five replications for each treatment were prepared, and the experiment was carried out using a completely randomized design (CRD).
Mycelial growth in each treatment was recorded within seven days after incubation at room temperature with natural dark/light cycle in reference to the growth of the control. Percent inhibition of diameter growth (% PIDG) was calculated as described above. Analyses of statistical data were carried out using the standard analysis of variance (ANOVA) procedure using SAS software (version 9.2).

P. palmivora [4] = assay: In vivo testing using cocoa pods, pre-treated then inoculated; design: species or system Phytophthora palmivora
Experimental: The efficacy of a fungicidal composition of the present invention was tested against P. palmivora. Healthy, green cocoa pods were picked, prior to artificial inoculation with Phytophthora isolate M5. One highly virulent P. palmivora isolate (MI 5 from Sabah) with 5 replicates (pods) were used as the control.
Each pod was washed carefully three times with sterile distilled water, the surface was disinfected for 2 minutes in 75% ethanol, and pods were air-dried at room temperature (25±2° C.). Different concentrations of the composition of the present invention (0-540 ppm) were prepared as for Examples 3 and 4, using the composition described in Example 1 which contained a polymeric film-forming agent, and spread on the pod surface to cover the whole pod. Cocoa pods with sterile distilled water were included as a negative control. After spreading, the pre-treated pods were inoculated with a 12 mm plug of 5-day old culture of P. palmivora grown on CMA plates by placing over the intact skin at the centre of each cocoa pod (see FIGS. 3A-I). The resulting pods were kept in moist plastic trays, covered with black polythene sheets to maintain moisture level, and incubated at 25±2° C. in the dark for seven days.

Phytophthora palmivora = assay: In vitro poison agar test, mycelial growth on corn meal agar; assay type: cell-based; conditions: concluded from the in vitro data; ppm of BAC
Experimental: In vitro tests were performed against Phytophthora palmivora, the pathogen responsible for pod rot of cocoa, stem canker of durian and rubber, and foot rot of pepper, using a poison agar method as discussed below.
A stock solution was prepared with (a) BAC (50% w/v in water, 180 mL), (b) STPP (25 g), and (c) BL8 (120 mL), with enough water to provide a total volume of 1 L.
as §1, with “Corn meal” for “Potato dextrose”, “(CMA, 17” for “(PDA, 39”, “(Oxoid™, Thermo Scientific)” for “(Difco™)”, “described above,” for “of Example 3,”, “3,” for “5,”
Mycelial growth in each treatment was recorded within seven days after incubation at room temperature with natural dark/light cycle in reference to the growth of the control. Percent inhibition of diameter growth (% PIDG) was calculated as follows:
[formula] • where: dc=average diameter of fungal colony in the control plate, and • dt=average diameter of fungal colony in the treatment plate. […]

benzalkonium chloride [BAC]
effective concentration for controlling an oomycete such as P. palmivora when applied to the fruit (P. palmivora [1]): 15-750 ppm | effective concentration for controlling a fungus such as Fusarium, when applied to the soil [2]: 500-2000 ppm | effective concentration for controlling a fungus such as Fusarium [3]: 500-2000 ppm | pods showing fungal infection around plug (P. palmivora [4]; cocoa pods treated with 18 ppm BAC, FIG. 3B): four out of five pods show fungal infection around plug | pods showing fungal infection around plug (P. palmivora [4]; cocoa pods treated with 36 ppm BAC, FIG. 3C): four out of five pods show fungal infection around plug | pods showing fungal infection around plug (P. palmivora [4]; cocoa pods treated with 54 ppm BAC, FIG. 3D): three out of five pods show fungal infection around plug | pods showing fungal infection around plug (P. palmivora [4]; cocoa pods treated with 72 ppm BAC, FIG. 3E): two out of five pods show fungal infection around plug | pods showing fungal infection around plug (P. palmivora [4]; cocoa pods treated with 90, 180, 360 and 540 ppm BAC, FIG. 3F-I): no fungal infection around plug | effective concentration for controlling an oomycete such as P. palmivora when applied to the fruit (P. palmivora [4]; concluded from the cocoa pod data, ppm of BAC): 15-750 ppm | effective concentration for controlling an oomycete such as Phytophthora (Phytophthora palmivora): 15-750 ppm
